Results reported in EP4653001A1, “TREATMENT, DIAGNOSIS AND/OR PROGNOSIS OF MITOCHONDRIAL DISEASES” (Universidad Autónoma de Madrid, priority 2024, dated 2025).

Key:
primary neurons = test: Patch-clamp capacitance analysis; assay type: cell-based, mouse; settings: CI inhibition
Experimental: A glass coverslip containing mixed cortical cultures of 10-14 DIV was placed in an immersion chamber constantly perfused with aCSF (119 mM NaCl, 2.5 mM KCl, 2.5 mM CaCl2, 1.2 mM MgCl2, 26 mM NaHCO3, 1 mM NaH2PO4, 11 mM glucose pH adjusted to 7.4 and osmolarity to 290 ±5 mOsm) gassed with carbogen (5-10% CO2, 90-95% O2) and its temperature closely monitored at 29°C. Cells were recorded under current-clamp configuration with patch recording glass electrodes (4-6 MΩ) composed of silver/silver chloride electrodes inserted in glass pipettes filled with internal solution (115 mM K gluconate, 20 mM KCl, 10 mM HEPES, 2 mM MgCl2, 4 mM Na2-ATP, 0.3 mM Na3-GTP pH adjusted to 7.2-7.3 and osmolarity to 290 ±5 mOsm). Resting membrane potential was directly acquired from these recordings. Voltage responses to current injections of -100 pA were used to calculate whole-cell input resistance and membrane capacitance. This last parameter is calculated from the exponential time constant (τ) of the voltage change, as τ=R*C (R: input resistance, C: capacitance).
Data acquisition was carried out with MultiClamp 700 A/B amplifiers and pCLAMP 9/10 software (Molecular Devices). Data analysis was performed using Clampfit software (Molecular Devices).

PC KO and ACLY KO cells = test: Intracellular malate levels in PC KO and ACLY KO 143B cells; assay type: cell-based; settings: double ablation of PC and ACLY, 100 nM, 72 h
Experimental: (§1) 1-5.0×10^6 cells were harvested on dry ice with 1 mL pre-chilled 80% HPLC-grade methanol (Fluka Analytical). The cell mixture was incubated for 15 min on dry ice prior to centrifugation at 18,000 × g for 10 min at 4°C. The supernatant was retained, and the remaining cell pellet was resuspended in 800 µL chilled 80% methanol and centrifuged. Supernatant was combined with the previous retention and was lyophilized using a SpeedVac (Thermo Fisher). Lyophilized samples were resuspended in 20 µL ultrapure water and subjected to metabolomics profiling using the AB/SCIEX 5500 QTRAP triple quadrupole instrument. Data analysis was performed using the GiTools software. 13C-labeled glutamine and glucose was acquired in SIGMA (605166 and 389374).
To assess the relative contribution of PC and ACLY to cell death phenotype in ETC deficient cells upon PPP inhibition, we treated PC KO and ACLY KO cells with Piericidin, G6PDi or both. […] A plausible explanation for the lack of phenotype in both PC and ACLY KO cells could be the upregulation of compensatory mechanisms whereby PC depletion would cause an enhanced rerouting of glutamine through ACLY and vice versa. […]

143B cells = test: Metabolomics of intracellular metabolites in 143B cells; assay type: cell-based; settings: 48 h
Experimental: as §1
Next, we conducted time-course experiments to gain further knowledge on the metabolic determinants underlying the observed synthetic lethality between PPP and OXPHOS. 143B cells were treated either with Piericidin or G6PDi (selective inhibitor of G6PD) alone or the combination of both and cell proliferation was quantified over the course of 96 h. […] Conversely, dual inhibition produced a marked reduction in cell survival beyond 48 h of treatment that was even more accentuated at 96 h (Figure 2A). […]

CC=C(C)C(O)C(C)C=C(C)C=CCC(C)=CCc1nc(OC)c(OC)c(O)c1C (stereo not shown) [Piericidin, Piericidin A]
capacitance (primary neurons): lower
intracellular malate levels (PC KO and ACLY KO cells): parallel decrease
NADH (143B cells): accumulation
intracellular levels of NADPH (143B cells): did not exert significant changes
